# Results published in patent US10981926B2 (Janssen Pharmaceutica NV, priority 2016, dated 2021).
# Where two headings read alike, the source gives them in different places.
# How the values were obtained:
# Type in all cases: cell-based
# [1] = molecular target: T1, F876L mutant Androgen Receptor (AR-F876L) (Homo sapiens (Human), UniProt P10275, F877L); assay: LNCaP-AR-F876L ANT reporter assay (antagonist mode)
# [2] = molecular target: T1, F876L mutant Androgen Receptor (AR-F876L); assay: LNCaP-AR-F876L AG reporter assay (agonist mode)
# AR in LNCaP cells = AR in LNCaP cells (Homo sapiens (Human), UniProt P10275, T878A); assay: LNCaP AR Localization Assay; settings: 4 h, read-out: Inhibition of translocation
# Protocol: LNCaP cells were expanded in RPMI 10% FBS in T150 flasks. The cells were dislodged with 0.25% Trypsin, washed in complete media, centrifuged (300 g, 3 min), and the supernatant aspirated. The cells were resuspended in RPMI phenol-red free media with 1% charcoal-stripped serum (CSS) and counted using a ViCELL (Beckman-Coulter). Three million cells in 7 mL of RPMI CSS were seeded into 100 mm dishes and incubated overnight at 37° C. 5% CO2. The following morning, compound dilutions were prepared in RPMI CSS using 50 mM stock solutions and added directly to the cells to obtain the final concentration of 10 μM. The dishes were placed into the incubator for 4 h. After 4 h, cell scrapers were used to dislodge the cells and the media/cell solution was centrifuged, supernatant aspirated, and then washed with Cell Wash Buffer (Protein Simple). The pellets were stored at −80° C. or processed immediately using the Subcellular Protein Fractionation Kit for Cultured Cells (Thermo-Fisher). The fractions obtained from this kit were stored at −80° C. Later, the samples' protein concentration was determined using the BCA Assay Kit (Thermo-Fisher) and the fraction lysates normalized to 0.6 mg/mL. The lysates were run on the Wes Simple Western platform (ProteinSimple). The data was analyzed, normalized to the total AR, and plotted in GraphPad Prism. […]
# LNCaP F876L = assay: LNCaP Proliferation Assay (LNCaP F876L); settings: Homo sapiens, 96 h, 4 days, CellTiter-Glo, normalized to 0.1 nM R1881 stimulation
# Protocol: LNCaP cells were expanded in RPMI 10% FBS in T150 flasks. The cells were dislodged with 0.25% Trypsin, washed in complete media, centrifuged (300 g, 3 min), and the supernatant aspirated. The cells were resuspended in RPMI phenol-red free media with 1% charcoal-stripped serum (CSS) and counted using a ViCELL (Beckman-Coulter). 7500 cells were added to each well of a white optical bottom 384-well plate and incubated for 2 days at 37° C. 5% CO2. Compound dilutions were prepared in RPMI CSS using 50 mM stock solutions and added to the cells either alone (agonist mode) or in combination with 0.1 nM R1881 (antagonist mode). The plates were incubated for 4 days, followed by addition of CellTiter-Glo Luminescent Cell Viability kit reagent (Promega). The plates were placed on a shaker at 3000 rpm for 10 minutes and then read on an EnVision plate reader (Perkin Elmer) using Luminescence assay default settings. The data was analyzed, normalized to 0.1 nM R1881 stimulation, and plotted in GraphPad Prism.
# AR L701H = AR L701H (Homo sapiens, UniProt P10275, L702H); assay: Luciferase Transcriptional Reporter Assay, AR L701H (HepG2)
# Protocol: (§1) HepG2 cells were maintained in EMEM supplemented with 10% FBS. One day before transfection, the media was changed to EMEM with 10% CSS. T-150 flasks were transiently transfected using 120 μL Lipofectamine 2000 (Life Technologies), 30 μg mutant cDNA (expression vector)—mutant cDNA tested were L701H, T877A, W741C and H874Y—and 40 μg 4×ARE-Luciferase (reporter vector) in OptiMEM and the flasks were incubated overnight. Cells were then trypsinized, counted and resuspended at 500,000 cells/mL. For agonist mode, the compounds of Formula (I) were serially diluted and 50 μL of the compound was added per well. 50 μL of the cells were added to each well and incubated for 48 hours. For antagonist mode, a final concentration of 90 pM R1881 was added to the diluted compounds and incubated for 48 hours. The plates were then assayed using SteadyGlo and read on the Envision. Percent Stimulation and Inhibition were determined and analyzed using GraphPad Prism.
# (§2) F876L agonism was evident at 3 and 10 μM (5%) but zero at 30 μM. The antagonistic (IC50) and agonistic (EC50) values for each of the AR cDNA used in the reporter assays are summarized. All values are calculated relative to the activity of R1881 induced androgen receptor activity (n≥3). Also indicated are the maximal inhibition and extent of induction of androgen dependent signaling (%).
# AR T877A = AR T877A (Homo sapiens (Human), UniProt P10275, T878A); assay: Luciferase Transcriptional Reporter Assay, AR T877A (HepG2)
# Protocol: as §1, §2
# AR H874Y = AR H874Y (Homo sapiens (Human), UniProt P10275, H875Y); assay: Luciferase Transcriptional Reporter Assay, AR H874Y (HepG2)
# Protocol: as §1, §2
# AR-VP16 = AR-VP16 (Homo sapiens, UniProt P10275); assay: AR-VP16 DNA Binding Assay (VP16 WT); settings: HepG2, antagonist mode, 90 pM R1881, 48 hours
# Protocol: HepG2 cells were maintained in EMEM supplemented with 10% FBS. One day before transfection, the media was changed to EMEM with 10% CSS. T-150 flasks were transiently transfected using 120 μL Lipofectamine 2000 (Life Technologies), 24.5 μg AR-VP16 or F876L-VP16 (expression vector) and 49 μg 4×ARE-Luciferase (reporter vector) in OptiMEM and the flasks were incubated overnight. Cells were then trypsinized, counted and resuspended at 500,000 cells/mL. For agonist mode, the compounds were serially diluted and 50 μL of the compound was added per well. 50 μL of the cells were added to each well and incubated for 48 hours. For antagonist mode, a final concentration of 90 pM (VP16 AR) or 1 nM (VP16 F876L) R1881 was added to the plate and incubated for 48 hours. The plates were then assayed using SteadyGlo and read on the Envision. Percent Stimulation and Inhibition were determined and analyzed using GraphPad Prism.
# AR H874Y, sequence (P10275 whole entry H875Y): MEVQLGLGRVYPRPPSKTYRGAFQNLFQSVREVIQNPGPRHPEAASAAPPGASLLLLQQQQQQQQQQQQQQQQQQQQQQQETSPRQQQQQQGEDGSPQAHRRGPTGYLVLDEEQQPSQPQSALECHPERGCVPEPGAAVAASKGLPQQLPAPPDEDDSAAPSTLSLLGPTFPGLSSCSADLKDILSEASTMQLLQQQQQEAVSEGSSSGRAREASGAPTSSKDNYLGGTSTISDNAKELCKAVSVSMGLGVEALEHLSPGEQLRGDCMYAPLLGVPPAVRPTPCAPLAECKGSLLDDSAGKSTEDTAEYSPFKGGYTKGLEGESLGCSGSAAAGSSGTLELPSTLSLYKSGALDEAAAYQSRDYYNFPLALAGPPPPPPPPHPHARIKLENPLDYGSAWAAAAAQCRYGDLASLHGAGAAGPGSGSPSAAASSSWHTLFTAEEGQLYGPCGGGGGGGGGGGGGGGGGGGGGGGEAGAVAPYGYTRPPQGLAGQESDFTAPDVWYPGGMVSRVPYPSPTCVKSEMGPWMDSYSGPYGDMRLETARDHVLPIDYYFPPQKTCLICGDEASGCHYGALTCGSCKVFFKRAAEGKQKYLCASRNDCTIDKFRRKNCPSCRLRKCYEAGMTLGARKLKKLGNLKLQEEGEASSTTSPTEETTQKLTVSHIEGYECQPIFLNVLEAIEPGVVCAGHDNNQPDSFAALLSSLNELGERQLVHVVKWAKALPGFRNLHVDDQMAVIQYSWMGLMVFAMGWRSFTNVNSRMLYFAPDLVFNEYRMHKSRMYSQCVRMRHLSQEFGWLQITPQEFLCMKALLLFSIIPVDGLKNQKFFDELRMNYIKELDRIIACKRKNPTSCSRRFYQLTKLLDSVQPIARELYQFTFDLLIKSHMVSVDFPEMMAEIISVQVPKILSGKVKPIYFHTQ
# AR L701H, sequence (P10275 whole entry L702H): as the sequence (P10275 whole entry H875Y) above, with L702H, Y875H counted along it
# T1 sequence (P10275 whole entry F877L): as the sequence (P10275 whole entry H875Y) above, with Y875H, F877L counted along it
# AR T877A, sequence (P10275 whole entry T878A): as the sequence (P10275 whole entry H875Y) above, with Y875H, T878A counted along it
# AR in LNCaP cells, sequence (P10275 whole entry T878A): as the sequence (P10275 whole entry H875Y) above, with Y875H, T878A counted along it
# AR-VP16, sequence (P10275 whole entry, looked up): as the sequence (P10275 whole entry H875Y) above, with Y875H counted along it
smiles,measurement,setting,value
"N#Cc1ncc(N2C(=O)C3(CCC3)N(c3ccc(OC4CCNCC4)nc3)C2=S)cc1C(F)(F)F [Cpd 43, 5-[5-oxo-8-[6-(4-piperidyloxy)-3-pyridyl]-7-thioxo-6,8-diazaspiro[3.4]octan-6-yl]-3-(trifluoromethyl)pyridine-2-carbonitrile]",LNCaP-AR-F876L ANT pIC50,"[1]; antagonist mode, pIC50 = −Log10(IC50 in Molar)",7.43
same,LNCaP-AR-F876L ANT MAX % Inh,[1]; maximum % inhibition of R1881 control response over the tested concentration range,100.0%
same,EC50,"[2]; agonist mode, pEC50 = −Log10(EC50 in Molar), read-out: LNCaP-AR-F876L AG pEC50 (converted)",> 15.1 µM
same,LNCaP-AR-F876L AG MAX % Stim,[2]; maximum % stimulation (agonist response) over the tested concentration range,0.1%
same,inhibition at 10 µM,AR in LNCaP cells,50%
same,IC50,LNCaP F876L,0.197 µM
same,Emax,"AR L701H; HepG2, agonist mode, relative to R1881, read-out: Agonism % Emax, AR construct L701H",0%
same,IC50,"AR L701H; HepG2, antagonist mode, 90 pM R1881, 48 hours, read-out: Antagonism IC50, AR construct L701H",10 µM
same,Emax,"AR L701H; HepG2, antagonist mode, maximal inhibition, read-out: Antagonism % Emax, AR construct L701H",90%
same,EC50,"AR T877A; HepG2, agonist mode, 48 hours, read-out: Agonism EC50, AR construct T877A",2.29 µM
same,Emax,"AR T877A; HepG2, agonist mode, relative to R1881, read-out: Agonism % Emax, AR construct T877A",10%
same,IC50,"AR T877A; HepG2, antagonist mode, 90 pM R1881, 48 hours, read-out: Antagonism IC50, AR construct T877A",6.81 µM
same,Emax,"AR T877A; HepG2, antagonist mode, maximal inhibition, read-out: Antagonism % Emax, AR construct T877A",80%
same,Emax,"AR H874Y; HepG2, agonist mode, relative to R1881, read-out: Agonism % Emax, AR construct H874Y",0%
same,IC50,"AR H874Y; HepG2, antagonist mode, 90 pM R1881, 48 hours, read-out: Antagonism IC50, AR construct H874Y",16.8 µM
same,Emax,"AR H874Y; HepG2, antagonist mode, maximal inhibition, read-out: Antagonism % Emax, AR construct H874Y",80%
same,IC50,AR-VP16,7.75 µM
